These results are taken from US10233201B2, “Class of HDAC inhibitors expands the renal progenitor cells population and improves the rate of recovery from acute kidney injury” (University of Pittsburgh—Of the Commonwealth System of …, priority 2012, dated 2019).

The test system of series [1] is zebrafish larvae. The experiment in a line: Phenotypic scoring of edema and survival in zebrafish larvae at 72 hpf. It is filed as in vivo. The source says: PTBA was synthesized as described below. Hydroxyurea and aphidicolin were obtained from Sigma-Aldrich.
Wild type: no visible edema or developmental delay.

Series [2] deals with proximal convoluted tubule cells. In words: Gentamycin-induced AKI in zebrafish larvae: renal cell proliferation (EdU). It is filed as in vivo. The conditions noted are these: 4 μM added 2 days post injection of gentamicin; larvae at 5 days post injection. How it is done: FIG. 42A is a graph showing the results of an AKI model using gentamycin-induced injury. AKI is generated as per a recent publication, Cianciolo Cosenitino, C., et al. ((2010) Intravenous microinjections of zebrafish larvae to study acute kidney injury. JoVE August 4 (42), pii: 2079. doi: 10.3791/2079). Four micromolar m4PTB (UPHD-00025) was added to the zebrafish E3 media in 0.5% DMSO at 2 days post injection of gentamicin and the larvae are scored daily for four days (6 days post injection) as alive or dead, with the final data tallied on day 6 post injection FIG. 42B.
Proliferation of renal cells was examined post AKI for m4PTB in zebrafish larvae (FIG. 43). AKI is generated as above with gentamycin, essentially as described in Example 11. Four μM m4PTB was added 2 days post injection of gentamicin. Zebrafish larvae at 5 days post injection were treated for 1 hour with the thymidine analogue EdU (10 milimolar), which incorporates into dividing (proliferating cells) while the larvae are in the zebrafish E3 media. The larvae where then fixed and processed for histology to count the number of proliferating cells in the proximal convulted tubule (as marked by the antibody 3G8). The number of proliferating cells was divided by the total number of cells in the proximal convoluted tubule to generate the percent of proliferation also known as the proliferation index as shown in FIG. 43.

The structures appear in SMILES notation.

For the molecule `O=C(O)CCCSc1ccccc1` [PTBA, 4-(phenylthio)butanoic acid], the “death by 72 hpf” value is on record as “without causing significant death” in series [1] (3 μM) and “died before 72 hpf” in series [1] (10 μM, n=90). The “edema in 72 hpf larvae” value in series [1] (3 μM, treatment initiated at 15 somites or later) is “lack of edema”. In addition, the “phenotype in initial chemical screen” value in series [1] (10 μM, larvae at 72 hpf) was “generated pericardial edema”. Moreover, the “larvae with edemic phenotype / pericardial edema at 72 hpf” value in series [1] (treated from 2 hpf, 3 μM PTBA, 25 μM PBA, 200 nM TSA) was determined as 92%.
As for `COC(=O)CCCSc1ccccc1` [UPHD-00025, methyl 4-(phenylsulfanyl) butanoate], in series [2], the “renal cell proliferation (proliferation index)” value was “significantly increased”.
